SMILES strings stand for the structures.

From PubChem BioAssay AID1495 (Sanford-Burnham Center for Chemical Genomics, 2009) come the findings set out here.

One assay has as its target Chaperone protein DnaK (Escherichia coli) (UniProt C3TRK2). The experiment in a line: E. coli DnaK binders, calorimetric Kd – biophysical, isothermal titration calorimetry, beta-domain, full-length DnaK, orthogonal assay for DnaK modulator project, SAR follow-up (AID 1495). Particulars: purified DnaK, isothermal titration calorimetry binding; measured here: ATP Kd, compound-saturated DnaK.
Turning to `O=C(NCc1cccc2ccsc12)c1cccs1`, the Kd was 2.5 µM.

Still in this assay, the particulars now being: purified DnaK, isothermal titration calorimetry binding; measured here: Kd to DnaK substrate-binding domain.
Consider `O=C(NCc1cccc2ccccc12)c1cccs1`, for which the dissociation constant Kd was determined as 1 µM.

`Cc1ccc(C(=O)NCc2ccc(Cl)cc2)o1`: the Kd is 19.3 µM.

On to `O=C(NCc1ccccc1Br)c1cccs1`, for which the dissociation constant (Kd) was 14.3 µM.

With `CC(Cc1ccc(F)cc1)NC(=O)c1cccs1` (stereo not given), the Kd worked out at 13.7 µM.

Compound `O=C(Nc1ncc2ccccc2n1)c1cccs1` returned a Kd of 1.5 µM.

As for `Cc1ccc(CNC(=O)c2ccc([N+](=O)[O-])o2)cc1`, the Kd was 25 µM. This Kd is about 17-fold higher than that of the compound before.

`O=C(Nc1ccc2[nH]ccc2c1)c1cccs1` gave a Kd of 4.9 µM.

With `Cc1ccc(C(=O)NCc2ccc(F)cc2)o1`, the equilibrium dissociation constant (Kd) came out at 47.6 µM.

Turning to `O=C(NCc1ccccc1F)c1cccs1`, the equilibrium dissociation constant (Kd) is 64.1 µM.

Still in this assay, the particulars now being: purified DnaK, isothermal titration calorimetry binding; measured here: substrate peptide Kd, compound-saturated DnaK.
The compound `O=C(c1cccs1)N1CCN(CCO)CC1` had a dissociation constant (Kd) of 7.9 µM.

`CC(Cc1ccc(F)cc1)NC(=O)c1cccs1` (stereo not given) displayed a Kd of 0.2 µM.

Regarding `O=C(NCc1ccc(Cl)c(Cl)c1)c1cccs1`, the dissociation constant Kd is 0.6 µM.

As for `O=C(Nc1ccc2[nH]ccc2c1)c1cccs1`, the Kd worked out at 2.2 µM.

Consider `O=C(NCc1ccccc1O)c1cccs1`, for which the Kd worked out at 1.2 µM.
